Test results published in the OPERA property sets (Mansouri et al. 2018).

| Compound | logP |
| --- | --- |
| CCCCCC#N | 1.66 |
| N#CCCCCl | 0.56 |
| CCCC#N | 0.53 |
| C=C(C)C#N | 0.68 |
| CCCCCCCC#N | 2.75 |
| C=CCC#N | 0.4 |
| N#CCCCl | 0.18 |
| CCCCCCCCC#N | 3.12 |
| CC(C)CCC#N | 1.54 |
| CC(C)C#N | 0.46 |
| CCC(C)C#N (stereo unspecified) | 1.05 |
